Test results from ChEMBL document CHEMBL4312022, “Design, synthesis, and biological evaluation of ligustrazine - betulin amino-acid/dipeptide derivatives as anti-tumor agents” (Eur J Med Chem, 2020).
pIC50: −log10 of the molar value. Activity calls are given as the source filed them. The calls are words filed in the database; no cut-off is given here.

Columns and labels:
HepG2 [1] = assay: Antiproliferative activity against human HepG2 cells assessed as reduction in cell viability after 72 hrs by MTT assay; format: functional, cell-based; conditions: HepG2, 72 h
BGC-823 = assay: Antiproliferative activity against human BGC823 cells assessed as reduction in cell viability after 72 hrs by MTT assay; format: functional, cell-based; conditions: BGC-823, 72 h
HepG2 [2] = assay: Induction of cell cycle arrest in human HepG2 cells assessed as accumulation at G1 phase at 8 uM after 72 hrs by PI-staining based flow cytometry (reference value: 66.9%); format: functional
HepG2 [3] = assay: Induction of cell cycle arrest in human HepG2 cells assessed as accumulation at G2 phase at 4 uM after 72 hrs by PI-staining based flow cytometry (reference value: 19.2%); format: functional
HepG2 [4] = assay: Induction of cell cycle arrest in human HepG2 cells assessed as accumulation at G2 phase at 2 uM after 72 hrs by PI-staining based flow cytometry (reference value: 19.2%); format: functional
HepG2 [5] = assay: Induction of cell cycle arrest in human HepG2 cells assessed as accumulation at S phase at 4 uM after 72 hrs by PI-staining based flow cytometry (reference value: 13.9%); format: functional
HepG2 [6] = assay: Induction of apoptosis in human HepG2 cells assessed as early apoptotic cells at 12 uM after 24 hrs by AnnexinV-FITC/PI-staining based flow cytometry (reference value: 0.5%); format: functional
[7] = Toxicity in zebrafish embryos assessed as malformation rate at 4 uM after 72 hrs (reference value: 0%); design: species or system Danio rerio; conditions: in vivo
[8] = Toxicity in zebrafish embryos assessed as spinal cord bending at 4 uM after 72 hrs; design: species or system Danio rerio; conditions: in vivo
HepG2 [9] = assay: Induction of apoptosis in human HepG2 cells assessed as late apoptotic cells at 8 uM after 24 hrs by AnnexinV-FITC/PI-staining based flow cytometry (reference value: 4.5%); format: functional
HepG2 [10] = assay: Induction of apoptosis in human HepG2 cells assessed as increase in cell disruption up to 8 uM after 72 hrs by DAPI-staining based fluorescence microscopic analysis; format: functional
HepG2 [11] = assay: Induction of apoptosis in human HepG2 cells assessed as late apoptotic cells at 12 uM after 24 hrs by AnnexinV-FITC/PI-staining based flow cytometry (reference value: 4.5%); format: functional
[12] = Toxicity in zebrafish embryos assessed as mortality rate at 4 uM after 72 hrs (reference value: 3.33 +/- 4.71%); design: species or system Danio rerio; conditions: in vivo
HepG2 [13] = assay: Induction of apoptosis in human HepG2 cells assessed as late apoptotic cells at 4 uM after 24 hrs by AnnexinV-FITC/PI-staining based flow cytometry (reference value: 4.5%); format: functional
HepG2 [14] = assay: Induction of morphological changes in human HepG2 cells assessed as cell fragmentation at 8 uM after 72 hrs by giemsa staining based inverted microscopic analysis; format: functional
HepG2 [15] = assay: Induction of apoptosis in human HepG2 cells assessed as early apoptotic cells at 4 uM after 24 hrs by AnnexinV-FITC/PI-staining based flow cytometry (reference value: 0.5%); format: functional
HepG2 [16] = assay: Induction of apoptosis in human HepG2 cells assessed as reduction in number of normal cell morphology at 2 to 8 uM after 72 hrs by giemsa staining based inverted microscopic analysis; format: functional
HepG2 [17] = assay: Induction of cell cycle arrest in human HepG2 cells assessed as accumulation at G1 phase at 4 uM after 72 hrs by PI-staining based flow cytometry (reference value: 66.9%); format: functional
MDCK = assay: Cytotoxicity against MDCK cells assessed as reduction in cell viability after 72 hrs by MTT assay; format: cell-based; conditions: Canis lupus familiaris
HepG2 [18] = assay: Induction of apoptosis in human HepG2 cells assessed as early apoptotic cells at 8 uM after 24 hrs by AnnexinV-FITC/PI-staining based flow cytometry (reference value: 0.5%); format: functional
[19] = Selectivity index, ratio of IC50 for MDCK cells to IC50 for human HepG2 cells
HeLa = assay: Antiproliferative activity against human HeLa cells assessed as reduction in cell viability after 72 hrs by MTT assay; format: functional, cell-based
HepG2 [20] = assay: Induction of cell cycle arrest in human HepG2 cells assessed as accumulation at G2 phase at 8 uM after 72 hrs by PI-staining based flow cytometry (reference value: 19.2%); format: functional
[21] = Toxicity in zebrafish embryos assessed as body length at 4 uM after 72 hrs (reference value: 4165.80 +/- 64.98 micrometer); design: species or system Danio rerio; conditions: in vivo
HepG2 [22] = assay: Induction of cell cycle arrest in human HepG2 cells assessed as accumulation at S phase at 8 uM after 72 hrs by PI-staining based flow cytometry (reference value: 13.9%); format: functional
HepG2 [23] = assay: Induction of apoptosis in human HepG2 cells assessed as nuclear fragmentation at 2 to 8 uM after 72 hrs by DAPI-staining based fluorescence microscopic analysis; format: functional, cell-based
HepG2 [24] = assay: Induction of apoptosis in human HepG2 cells assessed as concentrated chromatin at 2 to 8 uM after 72 hrs by DAPI-staining based fluorescence microscopic analysis; format: functional, cell-based
HepG2 [25] = assay: Induction of morphological changes in human HepG2 cells assessed as cell pyknosis at 8 uM after 72 hrs by giemsa staining based inverted microscopic analysis; format: functional
[26] = Toxicity in zebrafish embryos assessed as effect on morphological changes at 4 uM after 72 hrs; design: species or system Danio rerio; conditions: in vivo
HepG2 [27] = assay: Induction of cell cycle arrest in human HepG2 cells assessed as accumulation at G1 phase at 2 uM after 72 hrs by PI-staining based flow cytometry (reference value: 66.9%); format: functional
HT-29 = assay: Antiproliferative activity against human HT-29 cells assessed as reduction in cell viability after 72 hrs by MTT assay; format: functional, cell-based; conditions: HT-29, 72 h
HepG2 [28] = assay: Induction of apoptosis in human HepG2 cells assessed as reduction in number of cells up to 8 uM after 72 hrs by DAPI-staining based fluorescence microscopic analysis; format: functional, cell-based
HepG2 [29] = assay: Induction of cell cycle arrest in human HepG2 cells assessed as accumulation at S phase at 2 uM after 72 hrs by PI-staining based flow cytometry (reference value: 13.9%); format: functional

Q: What does the source list for `C=C(C)[C@@H]1CC[C@]2(COC(=O)c3nc(C)c(C)nc3C)CC[C@]3(C)[C@H](CC[C@@H]4[C@@]5(C)CC[C@H](OC(=O)CN)C(C)(C)[C@@H]5CC[C@]43C)[C@@H]12`?
A: pIC50 (HepG2 [1]): 5.39; pIC50 (BGC-823): 5.37; Activity (HepG2 [2]): 81.5%; Activity (HepG2 [3]): 14.9%; Activity (HepG2 [4]): 15.8%; Activity (HepG2 [5]): 5.6%; Activity (HepG2 [6]): 35.4%; Activity [7]: 0%; Activity [8]: Non-Toxic; Activity (HepG2 [9]): 19.2%; Activity (HepG2 [10]): Active; Activity (HepG2 [11]): 21.4%; mortality at 72 h, 4 µM [12]: 8.33%; Activity (HepG2 [13]): 15.4%; Activity (HepG2 [14]): Active; Activity (HepG2 [15]): 5.5%; Activity (HepG2 [16]): Active; Activity (HepG2 [17]): 79.6%; pIC50 (MDCK): 4.79; Activity (HepG2 [18]): 14.2%; Ratio IC50 [19]: 3.91; pIC50 (HeLa): 5.31; Activity (HepG2 [20]): 13.6%; Activity [21]: 4140.09 um; Activity (HepG2 [22]): 4.9%; Activity (HepG2 [23]): Active; Activity (HepG2 [24]): Active; Activity (HepG2 [25]): Active; Activity [26]: Non-Toxic; Activity (HepG2 [27]): 76.8%; pIC50 (HT-29): 5.21; Activity (HepG2 [28]): Active; Activity (HepG2 [29]): 7.3%
